# Measurements: ChEMBL document CHEMBL1821647, “Synthesis and antioxygenic activities of seabuckthorn flavone-3-ols and analogs” (Bioorg Med Chem Lett, 2011)
# System: Radical scavenging activity
# Test: Antioxidant activity assessed as DPPH free radical scavenging activity
# Assay type: functional
row,SMILES,EC50 [µg]
1,C[C@@H]1O[C@@H](OC[C@H]2O[C@@H](Oc3c(-c4ccc(O)c(O)c4)oc4cc(O)cc(O)c4c3=O)[C@H](O)[C@@H](O)[C@@H]2O)[C@H](O)[C@H](O)[C@H]1O [RUTIN],15.5
2,COc1c(O)cc2oc(-c3ccc(O)c(O)c3)c(O)c(=O)c2c1O [PATULETIN],10.6
3,O=C(O)c1cc(O)c(O)c(O)c1 [GALLIC ACID],3.8
4,O=c1oc2c(O)c(O)cc3c(=O)oc4c(O)c(O)cc1c4c23 [ELLAGIC ACID],4.8
5,O=c1c(O)c(-c2ccc(O)c(O)c2)oc2c(O)c(O)cc(O)c12 [GOSSYPETIN],5.5
6,COc1cc(C2Oc3cc(O)cc(O)c3C(=O)C2O)ccc1O (centres undefined) [DIHYDROISORHAMNETIN],> 100
7,COc1ccc(C2Oc3cc(O)cc(O)c3C(=O)C2O)cc1 (centres undefined) [DIHYDROKAEMPFERIDE],> 100
8,COc1ccc(C2Oc3cc(O)cc(O)c3C(=O)C2O)cc1O (centres undefined) [TAMARAXETIN],> 100
9,O=C(O)[C@H]1O[C@@H](Oc2c(O)cc(O)c3c(=O)c(O)c(-c4ccc(O)c(O)c4)oc23)[C@H](O)[C@@H](O)[C@@H]1O [HIBIFOLIN],16
10,O=c1c(O)c(-c2ccc(O)c(O)c2)oc2cc(O)cc(O)c12 [QUERCETIN],14.4
11,O=c1c(O)c(-c2ccc(O)cc2)oc2cc(O)cc(O)c12 [KAEMPFEROL],14.6
12,COc1ccc(-c2oc3cc(O)cc(O)c3c(=O)c2O)cc1O [TAMARIXETIN],> 100
13,Cc1c(C)c2c(c(C)c1O)CCC(C)(C(=O)O)O2 (centres undefined) [TROLOX],12.5
14,O=C1c2c(O)cc(O)cc2O[C@H](c2ccc(O)c(O)c2)[C@H]1O [(+)-TAXIFOLIN],24
15,COc1cc(-c2oc3cc(O)cc(O)c3c(=O)c2O)ccc1O [ISORHAMNETIN],26.2
16,O=c1c(O)c(-c2ccc(O)c(O)c2)oc2cc(O)c(O)c(O)c12 [QUERCETAGETIN],10.5
17,O=c1c(O)c(-c2ccc(O)c(O)c2)oc2c(O[C@@H]3O[C@H](CO)[C@@H](O)[C@H](O)[C@H]3O)c(O)cc(O)c12,25.5
18,COc1ccc(-c2oc3cc(O)cc(O)c3c(=O)c2O)cc1 [KAEMPFERIDE],97
19,O=C1c2c(O)cc(O)cc2O[C@H](c2ccc(O)cc2)[C@H]1O [DIHYDROKAEMPFEROL],> 100
